From US11312719B2, “9-substituted amino triazolo quinazoline derivatives as adenosine receptor antagonists, pharmaceutical compositions and their use” (Merck Sharp & Dohme Corp., priority 2018, dated 2022) come the findings set out here.

The target in test [1] is human A2a adenosine receptor (Homo sapiens (Human), UniProt P29274). The test is described as follows: A2a receptor affinity radioligand binding assay ([3H] SCH58261). To be noted: for IC50: membranes from HEK293 or CHO cells expressing human A2a receptor. As to the method: The A2a receptor affinity binding assay measured the amount of binding of a tritiated ligand with high affinity for the A2a adenosine receptor to membranes made from HEK293 or CHO cells recombinantly expressing the human A2a adenosine receptor, in the presence of varying concentrations of a compound of the invention.
Measurement of A2a Binding Affinity Using Radioligand Binding
148 μL (5 μg/mL) membranes (Perkin Elmer, Cat. No. RBHA2aM400UA) and 2 μL compounds of the invention to be tested (test compound) were transferred to individual wells of a 96-well polypropylene assay plate and incubated for 15 to 30 minutes at room temperature. [^3H] SCH58261 ((7-(2-phenylethyl)-5-amino-2-(2-furyl)-pyrazolo-[4,3-e]-1,2,4-triazolo[1,5-c]pyrimidine)) was diluted in assay buffer (50 mM Tris pH 7.4, 10 mM MgCl2, 0.005% Tween20) to a concentration of 4 nM and 50 μL transferred to each well of the assay plate. To define total and non-specific binding, wells containing 1% DMSO and 1 μM ZM241385 (Tocris Bioscience, Cat. No. 1036) respectively, were also included. The assay plate was incubated at room temperature for 60 minutes with agitation. Using a FilterMate Harvester® (Perkin Elmer), the contents of the assay plate were filtered through a UniFilter-96® PEI coated plate (Perkin Elmer Cat. No. 6005274 or 6005277). Filtering was achieved by aspirating the contents of the assay plate for 5 seconds, then washing and aspirating the contents three times with ice-cooled wash buffer (50 mM Tris-HCl pH 7.4, 150 mM NaCl) and allowing the vacuum manifold to dry the plate for 30 seconds. The filter plate was incubated for at least 1 hour at 55° C., and allowed to dry. The bottom of the filter plate was sealed with backing tape. 40 μL Ultima Gold™ (Perkin Elmer, Cat. No. 6013329) was added to each well of the filter plate and the top of the plate was sealed with TopSeal-A PLUS® clear plate seal (Perkin Elmer, Cat. No. 6050185). The plate was incubated for at least 20 minutes, and then the amount of radioactivity remaining in each well was determined using a TopCount® (Perkin Elmer) scintillation counter. After normalization to total and non-specific binding, the percent effect at each compound concentration was calculated. The plot of percent effect versus the log of compound concentration was analyzed electronically using a 4-parameter logistic fit based on the Levenberg-Marquardt algorithm to generate IC50 values.

For test [2], the target named is human A2b adenosine receptor (Homo sapiens (Human), UniProt P29275). Description: A2b radioligand filtration binding assay. To be noted: for IC50: membranes from HEK293 cells expressing human A2b receptor. The method, then: Measurement of A2b Binding Affinity
The reported affinity of the compounds of the invention for the human A2b adenosine receptor was determined experimentally using a radioligand filtration binding assay. This assay measures the amount of binding of a tritiated proprietary A2b receptor antagonist, in the presence and absence of a compound of the invention, to membranes made from HEK293 cells recombinantly expressing the human A2b adenosine receptor (Perkin Elmer, Cat. No. ES-013-C).
148 μL (135 μg/mL) membranes and 2 μL test compounds were transferred to individual wells of a 96-well polypropylene assay plate and incubated for 15 to 30 minutes at room temperature with agitation. Tritiated radioligand was diluted to a concentration of 14 nM in assay buffer (phosphate buffered saline without Magnesium and Calcium, pH 7.4; GE Healthcare Life Sciences, Cat. No. SH30256.01) and then 50 μL of the solution were transferred to each well of the assay plate. To define total and non-specific binding, wells containing 1% DMSO and 20 μM N-ethylcarboxamidoadenosine (Tocris Bioscience, Cat. No. 1691) respectively, were also included. The wells of the assay plate were incubated at room temperature for 60 minutes with agitation, then filtered using a FilterMate Harvester® (Perkin Elmer) or similar equipment through a UniFilter-96® PEI coated plate (Perkin Elmer Cat. No. 6005274 or 6005277). Filtering was achieved by aspirating the contents of the assay plate for 5 seconds, then washing and aspirating the contents three times with ice-cooled wash buffer (assay buffer supplemented with 0.0025% Brij58) and allowing the vacuum manifold to dry the plate for 30 seconds. The filter plate was incubated for at least 1 hour at 55° C. and allowed to dry. The bottom of the filter plate was then sealed with backing tape. 40 μL Ultima Gold™ (Perkin Elmer, Cat. No. 6013329) was added to each well of the filter plate and the top of the plate was sealed with TopSeal-A PLUS® clear plate seal (Perkin Elmer, Cat. No. 6050185). The plates were then incubated for at least 20 minutes, and then the amount of radioactivity remaining in each well was determined using a TopCount® (Perkin Elmer) scintillation counter. After normalization to total and non-specific binding, the percent effect at each compound concentration was calculated. The plot of percent effect versus the log of compound concentration was analyzed electronically using a 4-parameter logistic fit based on the Levenberg-Marquardt algorithm to generate IC50 values.

Molecules are shown by their SMILES.

Sequence of human A2a adenosine receptor (P29274 whole entry): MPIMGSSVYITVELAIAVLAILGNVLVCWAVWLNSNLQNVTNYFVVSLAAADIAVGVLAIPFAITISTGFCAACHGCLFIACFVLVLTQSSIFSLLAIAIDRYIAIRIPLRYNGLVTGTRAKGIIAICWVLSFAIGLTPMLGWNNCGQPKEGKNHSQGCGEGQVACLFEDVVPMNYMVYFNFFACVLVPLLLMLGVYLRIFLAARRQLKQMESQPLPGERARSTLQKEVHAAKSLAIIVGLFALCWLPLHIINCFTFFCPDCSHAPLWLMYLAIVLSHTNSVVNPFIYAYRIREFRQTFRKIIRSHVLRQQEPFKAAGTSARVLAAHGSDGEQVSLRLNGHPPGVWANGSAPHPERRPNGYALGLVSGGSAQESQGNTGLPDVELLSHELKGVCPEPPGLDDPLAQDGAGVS
Sequence of human A2b adenosine receptor (P29275 whole entry): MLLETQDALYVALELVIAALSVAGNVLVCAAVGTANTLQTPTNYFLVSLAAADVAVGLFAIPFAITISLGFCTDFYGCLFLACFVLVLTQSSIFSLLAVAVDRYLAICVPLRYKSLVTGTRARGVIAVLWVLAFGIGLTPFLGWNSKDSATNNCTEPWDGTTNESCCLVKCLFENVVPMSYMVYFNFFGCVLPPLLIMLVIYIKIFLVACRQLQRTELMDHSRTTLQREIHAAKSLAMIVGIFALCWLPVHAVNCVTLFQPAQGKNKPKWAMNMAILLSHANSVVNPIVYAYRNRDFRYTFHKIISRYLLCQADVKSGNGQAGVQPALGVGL

Turning to `COc1cc2nc(N)n3nc(C4CC(F)CN(c5cnn(CC(C)(C)O)c5)C4)nc3c2cc1F` (single isomer, unassigned) [Example 55, 1-(4-((3R,5S or 3S,5R)-3-(5-amino-9-fluoro-8-methoxy-[1,2,4]triazolo[1,5-c]quinazolin-2-yl)-5-fluoropiperidin-1-yl)-1H-pyrazol-1-yl)-2-methylpropan-2-ol], the figures for the IC50 in test [1] and in test [2] were 0.0106 µM and 0.5 µM, respectively.
With `COc1cc2nc(N)n3nc(C4CC(F)CN(c5cnn(C6CCOCC6)c5)C4)nc3c2cc1F` (single isomer, unassigned) [Example 56, 9-fluoro-2-((3R,5S or 3S,5R)-5-fluoro-1-(1-(tetrahydro-2H-pyran-4-yl)-1H-pyrazol-4-yl)piperidin-3-yl)-8-methoxy-[1,2,4]triazolo[1,5-c]quinazolin-5-amine], the IC50 came to 0.0018 µM in test [1] and 0.846 µM in test [2].
Consider `COc1cc2nc(N)n3nc(C45CC4CN(c4cnn(CC(C)(C)O)c4)C5)nc3c2cc1F` (single isomer, unassigned) [Example 58, 1-(4-((1R,5R or 1S,5S)-1-(5-amino-9-fluoro-8-methoxy-[1,2,4]triazolo[1,5-c]quinazolin-2-yl)-3-azabicyclo[3.1.0]hexan-3-yl)-1H-pyrazol-1-yl)-2-methylpropan-2-ol], for which the IC50 in test [1] turned out to be 0.0136 µM; in test [2] it was 0.136 µM.
Regarding `COc1cc2nc(N)n3nc(C4CCCCN(c5cnn(CC(C)(C)O)c5)C4)nc3c2cc1F` (single isomer, unassigned) [Example 60, (R or S)-1-(4-(3-(5-amino-9-fluoro-8-methoxy-[1,2,4]triazolo[1,5-c]quinazolin-2-yl)azepan-1-yl)-1H-pyrazol-1-yl)-2-methylpropan-2-ol], the half-maximal inhibitory concentration (IC50) was found to be 0.0314 µM in test [1] and 5.86 µM in test [2].
Regarding `COc1cc2nc(N)n3nc(C4CCCCN(c5cnn(CC(C)(C)O)c5)C4)nc3c2cc1F` (single isomer, unassigned) [Example 61, (S or R)-1-(4-(3-(5-amino-9-fluoro-8-methoxy-[1,2,4]triazolo[1,5-c]quinazolin-2-yl)azepan-1-yl)-1H-pyrazol-1-yl)-2-methylpropan-2-ol], the IC50 turned out to be 0.005 µM in test [1] and 0.099 µM in test [2].
Take `COc1cc2nc(N)n3nc(C4(F)CCN(c5cnn(CC(C)(C)O)c5)C4)nc3c2cc1F` (single isomer, unassigned) [Example 62, (R or S)-1-(4-(3-(5-amino-9-fluoro-8-methoxy-[1,2,4]triazolo[1,5-c]quinazolin-2-yl)-3-fluoropyrrolidin-1-yl)-1H-pyrazol-1-yl)-2-methylpropan-2-ol]: the IC50 is 0.146 µM in test [1] and 0.383 µM in test [2].
For the compound `COc1cc2nc(N)n3nc(C4(F)CCN(c5cnn(CC(C)(C)O)c5)C4)nc3c2cc1F` (single isomer, unassigned) [Example 63, (S or R)-1-(4-(3-(5-amino-9-fluoro-8-methoxy-[1,2,4]triazolo[1,5-c]quinazolin-2-yl)-3-fluoropyrrolidin-1-yl)-1H-pyrazol-1-yl)-2-methylpropan-2-ol], the 50% inhibitory concentration (IC50) in test [1] stood at 0.242 µM; in test [2], 2.43 µM.
On to `COc1cc2nc(N)n3nc([C@@H]4CCCN(c5ncn(C(C)C(C)(C)O)n5)C4)nc3c2cc1F` (single isomer, unassigned) [Example 64, (R or S)-3-(3-((R)-3-(5-amino-9-fluoro-8-methoxy-[1,2,4]triazolo[1,5-c]quinazolin-2-yl)piperidin-1-yl)-1H-1,2,4-triazolo-1-yl)-2-methylbutan-2-ol], for which the figures for the concentration for half-maximal inhibition (IC50) in test [1] and in test [2] were 0.001 µM and 0.555 µM, respectively.
Consider `COc1cc2nc(N)n3nc([C@@H]4CCCN(c5ncn(C(C)C(C)(C)O)n5)C4)nc3c2cc1F` (single isomer, unassigned) [Example 65, (S or R)-3-(3-((R)-3-(5-amino-9-fluoro-8-methoxy-[1,2,4]triazolo[1,5-c]quinazolin-2-yl)piperidin-1-yl)-1H-1,2,4-triazolo-1-yl)-2-methylbutan-2-ol], for which the IC50 in test [1] came out at 0.0012 µM; in test [2], 0.228 µM.
Regarding `COc1cc2nc(N)n3nc(C4CN(c5cnn(CC(C)(C)O)c5)CCC4C)nc3c2cc1F` (single isomer, unassigned) [Example 66, 1-(4-((3S or 3R,4S or 4R)-3-(5-amino-9-fluoro-8-methoxy-[1,2,4]triazolo[1,5-c]quinazolin-2-yl)-4-methylpiperidin-1-yl)-1H-pyrazol-1-yl)-2-methylpropan-2-ol], the 50% inhibitory concentration (IC50) in test [1] is 0.0006 µM; in test [2], 0.957 µM.
`COc1cc2nc(N)n3nc(C4CN(c5cnn(CC(C)(C)O)c5)CCC4C)nc3c2cc1F` (single isomer, unassigned) [Example 67, 1-(4-((3R or 3S,4R or 4S)-3-(5-amino-9-fluoro-8-methoxy-[1,2,4]methylpiperidin-1-yl)-1H-pyrazol-1-yl)-2-methylpropan-2-ol]: the “A2A binding % Inh. @ 1000 nM” value in test [1] (@ 1000 nM) is reported as 44% Inh. For the same compound, in test [2], the “A2B binding % Inh. @ 10000 nM” value is 31% Inh.
`COc1cc(F)cc2c1nc(N)n1nc([C@@H]3C[C@H](F)CN(c4cnn(CC(C)(C)O)c4)C3)nc21` (single isomer, unassigned) [Example 68, 1-(4-((3R,5S or 3S,5R)-3-(5-amino-9-fluoro-7-methoxy-[1,2,4]triazolo[1,5-c]quinazolin-2-yl)-5-fluoropiperidin-1-yl)-1H-pyrazol-1-yl)-2-methylpropan-2-ol]: the half-maximal inhibitory concentration (IC50) in test [1] is 0.181 µM. In addition, the “A2B binding % Inh. @ 10000 nM” value in test [2] is 31% Inh.
Turning to `COc1cc(F)cc2c1nc(N)n1nc([C@H]3C[C@@H](F)CN(c4cnn(CC(C)(C)O)c4)C3)nc21` (single isomer, unassigned) [Example 69, 1-(4-((3S,5R or 3R,5S)-3-(5-amino-9-fluoro-7-methoxy-[1,2,4]triazolo[1,5-c]quinazolin-2-yl)-5-fluoropiperidin-1-yl)-1H-pyrazol-1-yl)-2-methylpropan-2-ol], the IC50 in test [1] was 0.0026 µM; in test [2] it was 0.561 µM.
On to `COc1cc(F)cc2c1nc(N)n1nc(C3CC(F)CN(c4cn(CC(C)(C)O)nc4C)C3)nc21` (single isomer, unassigned) [Example 70, 1-(4-((3R,5S or 3S,5R)-3-(5-amino-9-fluoro-7-methoxy-[1,2,4]triazolo[1,5-c]quinazolin-2-yl)-5-fluoropiperidin-1-yl)-3-methyl-1H-pyrazol-1-yl)-2-methylpropan-2-ol], for which the figures for the IC50 in test [1] and in test [2] were 0.0006 µM and 0.786 µM, respectively.
In turn, `COc1cc(F)cc2c1nc(N)n1nc(C3CC(F)CN(c4cn(CC(C)(C)O)nc4C)C3)nc21` (single isomer, unassigned) [Example 71, 1-(4-((3S,5R or 3R,5S)-3-(5-amino-9-fluoro-7-methoxy-[1,2,4]fltriazolo[1,5-c]quinazolin-2-yl)-5-fluoropiperidin-1-yl)-3-methyl-1H-pyrazol-1-yl)-2-methylpropan-2-ol] yielded a half-maximal inhibitory concentration (IC50) in test [1] of 0.0356 µM. In test [2], the “A2B binding % Inh. @ 10000 nM” value stood at 43% Inh.

By IC50 is commonly meant the point on the concentration scale where inhibition reaches its midpoint. Higher therefore signals weaker potency in that assay.
